Experimental findings from patent publication US8518911B2, “Pyrazolo[1,5-a]pyridines as MARK inhibitors” (Merck Sharp & Dohme Corp., priority 2008, dated 2013) are described below.

The assay deals with T1, recombinant MARK3 enzyme (Homo sapiens, UniProt P27448).
T1 construct: purchased University of Dundee
T1 sequence (P27448 whole entry, species assumed): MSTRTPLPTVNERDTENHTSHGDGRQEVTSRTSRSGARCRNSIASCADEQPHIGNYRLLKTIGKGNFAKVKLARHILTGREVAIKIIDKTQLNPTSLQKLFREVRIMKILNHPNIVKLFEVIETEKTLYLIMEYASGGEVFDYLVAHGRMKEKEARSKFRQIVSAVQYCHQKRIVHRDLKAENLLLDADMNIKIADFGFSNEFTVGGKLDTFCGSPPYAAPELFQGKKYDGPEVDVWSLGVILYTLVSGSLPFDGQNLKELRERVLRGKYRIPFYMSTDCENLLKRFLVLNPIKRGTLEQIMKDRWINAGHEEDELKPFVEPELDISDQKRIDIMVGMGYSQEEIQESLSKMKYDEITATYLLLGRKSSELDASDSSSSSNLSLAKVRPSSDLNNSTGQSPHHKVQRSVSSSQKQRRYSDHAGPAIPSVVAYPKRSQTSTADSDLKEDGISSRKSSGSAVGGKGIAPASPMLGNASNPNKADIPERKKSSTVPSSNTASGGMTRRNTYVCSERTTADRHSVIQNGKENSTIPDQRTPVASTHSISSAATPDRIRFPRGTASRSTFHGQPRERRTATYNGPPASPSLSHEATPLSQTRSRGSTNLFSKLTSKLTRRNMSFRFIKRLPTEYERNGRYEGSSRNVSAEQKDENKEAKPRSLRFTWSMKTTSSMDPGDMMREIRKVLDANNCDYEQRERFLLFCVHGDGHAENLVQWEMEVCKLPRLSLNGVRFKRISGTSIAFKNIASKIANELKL
Briefly: MARK 3 Assay (HTRF, Cdc25C biotinylated peptide substrate). It is filed as biochemical. To be noted: MARK3, 10 μM ATP, 1 μM peptide substrate, 2 hours at 25° C. On the procedure:
MARK3 activity was assayed in vitro using a Cdc25C biotinylated peptide substrate (Cell Signalling Technologies). The phosphopeptide product was quantitated using a Homogenous Time-Resolved Fluorescence (HTRF) assay system (Park et al., 1999, Anal. Biochem. 269:94-104). The reaction mixture contained 50 mM HEPES/Tris-HCl, pH 7.4; […], 5 mM MgCl2, 0.2 mM NaVO4, 5 mM β-glycerol phosphate, 0.1% Tween-20, 2 mM dithiothreitol, 0.1% BSA, 10 μM ATP, 1 μM peptide substrate, and 10 nM recombinant MARK3 enzyme (University of Dundee) in a final volume of 12 μL. The buffer additionally contained protease inhibitor cocktail (Roche EDTA-free, 1 tab per 50 ml). The kinase reaction was incubated for 2 hours at 25° C., and then terminated with 3 μl Stop/Detection Buffer (50 mM HEPES, pH 7.0, 16.6 mM EDTA, 0.5M KF, 0.1% Tween-20, 0.1% BSA, 2 μg/ml SLX^ent 665 (CISBIO), and 2 μg/mL Eu^3+ cryptate label antibody (CISBIO)). The reaction was allowed to equilibrate overnight at 0° C., and relative fluorescent units were read on an HTRF enabled plate reader (e.g. TECAN GENios Pro).
Inhibitor compounds were assayed in the reaction described above to determine compound IC50s. Aliquots of compound dissolved in DMSO were added to the reaction wells in a third-log dilution series covering a range of 1 nM to 10 μM. Relative phospho substrate formation, read as HTRF fluorescence units, was measured over the range of compound concentrations and a titration curve generated.
With `C=C(C)c1ccc2c(-c3csc(C(=O)N[C@@H]4[C@@H](N)CCCC4(F)F)n3)cnn2c1` [Example 157, N-[(1R,6S)-6-Amino-2,2-difluorocyclohexyl]-4-(6-isopropenylpyrazolo[1,5-a]pyridin-3-yl)-1,3-thiazole-2-carboxamide], the IC50 stood at 0.5 nM.

`N[C@@H]1CCCC(F)(F)[C@@H]1NC(=O)c1nc(-c2cnn3cc(-c4ccc(F)cc4)ccc23)c(Cl)s1` [Example 1]: the IC50 was determined as 21 nM.

Turning to `N[C@@H]1CCCC(F)(F)[C@@H]1NC(=O)c1cc(-c2cnn3ccccc23)c(Cl)s1` [Example 206, N-[(1R,6R)-6-amino-2,2-difluorocyclohexyl]-5-chloro-4-pyrazolo[1,5-a]pyridin-3-yl-2-thiophenecarboxamide], the IC50 was determined as 19 nM.

For the molecule `Cc1sc(C(=O)NC(CN)c2ccccc2)nc1-c1cnn2cc(-c3cnn(C)c3)ccc12` (stereo not drawn) [Example 182, N-(2-Amino-1-phenylethyl)-5-methyl-4-[6-(1-methyl-1H-pyrazol-4-yl)pyrazolo[1,5-a]pyridin-3-yl]-1,3-thiazole-2-carboxamide], the IC50 is 13 nM.

Regarding `N[C@H]1CCCC(F)(F)[C@@H]1NC(=O)c1nc(-c2cnn3ccccc23)c(Cl)s1` [Example 7, N-[(1R,6S)-6-Amino-2,2-difluorocyclohexyl]-5-chloro-4-pyrazolo[1,5-a]pyridin-3-yl-1,3-thiazole-2-carboxamide], the IC50 was determined as 4 nM.

For `CCc1sc(C(=O)N[C@@H]2[C@@H](N)CCCC2(F)F)cc1-c1cnn2cc(F)ccc12` [Example 170, N-[(1R,6S)-6-Amino-2,2-difluorocyclohexyl]-5-ethyl-4-(6-fluoropyrazolo[1,5-a]pyridin-3-yl)thiophene-2-carboxamide], the IC50 was 29 nM.

Broadly, the IC50 is the point on the concentration scale where inhibition reaches its midpoint.
